Measured values: ChEMBL document CHEMBL5523684, “Development of a tetrahydroindazolone-based HDAC6 inhibitor with in-vivo anti-arthritic activity” (Bioorg Med Chem, 2024)

Assays:
Histone deacetylase 1 = Histone deacetylase 1 (Homo sapiens, UniProt Q13547); assay: Inhibition of human recombinant HDAC1 using fluorescent peptide p53 (379 to 382 residues) RHKK(Ac) as substrate by fluorescence based analysis
Homo sapiens = organism: Homo sapiens; assay: Selectivity index, ratio of IC50 for inhibition of his-tagged human recombinant HDAC1 using fluor de lys-SIRT1 as substrate to IC50 for inhibition of N-terminal GST-tagged human recombinant HDAC6 expressed in Spodoptera frugiperda
[1] = target: T1, Polyamine deacetylase HDAC10 (Homo sapiens, UniProt Q969S8); assay: Inhibition of human recombinant HDAC10 using fluorescent peptide p53 (379 to 382 residues) RHKK(Ac) as substrate by fluorescence based analysis
T1 sequence (Q969S8 whole entry): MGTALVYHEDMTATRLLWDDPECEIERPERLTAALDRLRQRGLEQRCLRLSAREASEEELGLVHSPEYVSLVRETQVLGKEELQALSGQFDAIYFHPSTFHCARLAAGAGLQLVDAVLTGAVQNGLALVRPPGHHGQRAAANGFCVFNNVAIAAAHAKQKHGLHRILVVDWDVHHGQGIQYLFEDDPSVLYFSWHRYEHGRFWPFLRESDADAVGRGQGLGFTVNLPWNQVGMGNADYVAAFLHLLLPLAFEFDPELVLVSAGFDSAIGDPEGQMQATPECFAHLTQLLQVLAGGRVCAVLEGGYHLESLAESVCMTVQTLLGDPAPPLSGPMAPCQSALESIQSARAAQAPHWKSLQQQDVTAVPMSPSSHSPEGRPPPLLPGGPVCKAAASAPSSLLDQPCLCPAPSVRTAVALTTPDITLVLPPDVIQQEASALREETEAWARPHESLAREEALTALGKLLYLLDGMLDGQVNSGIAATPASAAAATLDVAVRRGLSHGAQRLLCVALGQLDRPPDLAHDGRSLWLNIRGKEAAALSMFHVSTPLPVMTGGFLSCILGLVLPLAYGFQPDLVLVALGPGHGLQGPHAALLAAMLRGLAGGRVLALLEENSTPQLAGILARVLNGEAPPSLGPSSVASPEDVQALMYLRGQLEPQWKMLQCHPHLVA

Histone deacetylase 3 = Histone deacetylase 3 (Homo sapiens, UniProt O15379)
Histone deacetylase 8 = target: T2, Histone deacetylase 8 (Homo sapiens, UniProt Q9BY41); assay: Inhibition of human recombinant HDAC8 using fluorescent peptide p53 (379 to 382 residues) (RHK(Ac)K(Ac)) as substrate by fluorescence based analysis
T2 sequence (Q9BY41 whole entry): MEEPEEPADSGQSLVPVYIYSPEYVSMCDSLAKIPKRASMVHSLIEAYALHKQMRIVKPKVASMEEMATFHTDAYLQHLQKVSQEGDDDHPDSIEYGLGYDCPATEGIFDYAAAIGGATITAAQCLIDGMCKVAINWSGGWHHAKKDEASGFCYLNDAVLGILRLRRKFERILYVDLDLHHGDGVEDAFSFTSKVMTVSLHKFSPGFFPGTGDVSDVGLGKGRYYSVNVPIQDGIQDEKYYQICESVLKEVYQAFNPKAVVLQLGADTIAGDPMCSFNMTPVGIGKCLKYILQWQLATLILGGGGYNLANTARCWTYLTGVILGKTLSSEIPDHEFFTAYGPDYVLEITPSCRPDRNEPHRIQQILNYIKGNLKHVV

Histone deacetylase 2 = Histone deacetylase 2 (Homo sapiens, UniProt Q92769); assay: Inhibition of human recombinant HDAC2 using fluorescent peptide p53 (379 to 382 residues) RHKK(Ac) as substrate by fluorescence based analysis
Histone deacetylase 11 = target: T3, Histone deacetylase 11 (Homo sapiens, UniProt Q96DB2); assay: Inhibition of human recombinant HDAC11 using fluorescent peptide p53 (379 to 382 residues) RHKK(Ac) as substrate by fluorescence based analysis
T3 sequence (Q96DB2 whole entry): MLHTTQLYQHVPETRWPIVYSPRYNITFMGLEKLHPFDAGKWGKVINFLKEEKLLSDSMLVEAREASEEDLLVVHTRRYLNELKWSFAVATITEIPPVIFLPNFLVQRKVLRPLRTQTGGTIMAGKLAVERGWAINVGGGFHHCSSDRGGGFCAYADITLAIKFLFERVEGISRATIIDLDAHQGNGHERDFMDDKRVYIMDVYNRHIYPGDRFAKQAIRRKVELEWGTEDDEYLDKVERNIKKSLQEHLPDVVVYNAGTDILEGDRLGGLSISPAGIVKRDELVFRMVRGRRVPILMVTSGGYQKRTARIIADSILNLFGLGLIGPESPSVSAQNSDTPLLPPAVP

Histone deacetylase 7 = target: T4, Histone deacetylase 7 (Homo sapiens, UniProt Q8WUI4); assay: Inhibition of human recombinant HDAC7 using Boc-Lys(tri-fluoroacetyl)-AMC as substrate by fluorescence based analysis
T4 sequence (Q8WUI4 whole entry): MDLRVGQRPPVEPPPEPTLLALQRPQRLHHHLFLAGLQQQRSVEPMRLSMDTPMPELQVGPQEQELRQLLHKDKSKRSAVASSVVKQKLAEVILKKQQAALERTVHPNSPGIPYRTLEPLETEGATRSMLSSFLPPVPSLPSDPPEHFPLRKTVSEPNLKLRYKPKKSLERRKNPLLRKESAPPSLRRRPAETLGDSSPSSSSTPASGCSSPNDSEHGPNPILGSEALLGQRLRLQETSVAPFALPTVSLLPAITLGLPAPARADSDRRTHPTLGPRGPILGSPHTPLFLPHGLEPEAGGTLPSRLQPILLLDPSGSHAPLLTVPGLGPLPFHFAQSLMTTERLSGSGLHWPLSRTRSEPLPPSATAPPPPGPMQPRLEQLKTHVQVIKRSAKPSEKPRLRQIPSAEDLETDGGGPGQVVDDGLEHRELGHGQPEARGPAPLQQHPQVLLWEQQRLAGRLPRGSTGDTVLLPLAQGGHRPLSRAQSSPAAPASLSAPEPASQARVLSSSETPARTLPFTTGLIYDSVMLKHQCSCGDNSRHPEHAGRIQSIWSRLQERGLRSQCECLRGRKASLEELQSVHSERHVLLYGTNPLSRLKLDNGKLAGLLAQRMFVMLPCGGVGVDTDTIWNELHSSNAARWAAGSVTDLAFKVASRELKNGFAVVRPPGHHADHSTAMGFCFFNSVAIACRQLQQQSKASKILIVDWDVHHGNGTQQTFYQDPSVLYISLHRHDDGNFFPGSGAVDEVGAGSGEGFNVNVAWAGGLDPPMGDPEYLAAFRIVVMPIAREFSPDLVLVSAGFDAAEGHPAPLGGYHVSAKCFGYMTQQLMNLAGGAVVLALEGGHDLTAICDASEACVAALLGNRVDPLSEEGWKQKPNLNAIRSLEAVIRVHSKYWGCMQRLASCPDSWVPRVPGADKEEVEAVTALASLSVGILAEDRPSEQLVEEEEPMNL

[2] = Tmax in monkey at 10 mg/kg, po; format: ADME, organism-based, Macaca mulatta; details: rhesus monkey, in vivo
[3] = Clearance in monkey at 0.5 mg/kg, iv; format: ADME, organism-based, Macaca mulatta; details: rhesus monkey, in vivo
[4] = AUC (0 to infinity) in monkey at 0.5 mg/kg, iv; format: ADME, organism-based, Macaca mulatta; details: rhesus monkey, in vivo

Histone deacetylase 2, sequence (Q92769 whole entry, the tested form may be a part): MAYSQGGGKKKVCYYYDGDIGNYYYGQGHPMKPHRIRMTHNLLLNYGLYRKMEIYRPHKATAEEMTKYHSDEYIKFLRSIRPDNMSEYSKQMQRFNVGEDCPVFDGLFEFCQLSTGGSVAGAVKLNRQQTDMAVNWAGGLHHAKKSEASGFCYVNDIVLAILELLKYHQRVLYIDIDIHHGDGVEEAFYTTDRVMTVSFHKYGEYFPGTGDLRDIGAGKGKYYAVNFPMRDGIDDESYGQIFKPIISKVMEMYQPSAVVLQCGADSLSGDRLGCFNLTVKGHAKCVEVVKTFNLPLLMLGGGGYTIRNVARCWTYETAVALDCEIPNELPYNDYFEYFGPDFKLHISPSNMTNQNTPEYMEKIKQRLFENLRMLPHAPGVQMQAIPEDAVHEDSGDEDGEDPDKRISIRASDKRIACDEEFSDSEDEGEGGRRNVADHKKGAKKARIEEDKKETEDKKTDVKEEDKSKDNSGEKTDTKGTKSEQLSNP
Histone deacetylase 3, sequence (O15379 whole entry, the tested form may be a part): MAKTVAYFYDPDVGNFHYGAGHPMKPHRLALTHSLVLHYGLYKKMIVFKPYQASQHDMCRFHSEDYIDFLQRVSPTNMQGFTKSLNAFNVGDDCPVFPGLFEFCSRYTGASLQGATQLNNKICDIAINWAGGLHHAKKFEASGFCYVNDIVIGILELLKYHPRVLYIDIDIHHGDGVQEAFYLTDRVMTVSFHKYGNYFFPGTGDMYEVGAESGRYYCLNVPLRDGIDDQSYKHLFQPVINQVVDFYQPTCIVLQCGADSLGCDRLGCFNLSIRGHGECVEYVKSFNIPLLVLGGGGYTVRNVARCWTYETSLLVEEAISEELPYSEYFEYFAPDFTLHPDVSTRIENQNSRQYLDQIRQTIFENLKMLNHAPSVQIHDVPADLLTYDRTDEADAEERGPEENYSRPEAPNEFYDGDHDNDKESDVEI
Histone deacetylase 1, sequence (Q13547 whole entry, the tested form may be a part): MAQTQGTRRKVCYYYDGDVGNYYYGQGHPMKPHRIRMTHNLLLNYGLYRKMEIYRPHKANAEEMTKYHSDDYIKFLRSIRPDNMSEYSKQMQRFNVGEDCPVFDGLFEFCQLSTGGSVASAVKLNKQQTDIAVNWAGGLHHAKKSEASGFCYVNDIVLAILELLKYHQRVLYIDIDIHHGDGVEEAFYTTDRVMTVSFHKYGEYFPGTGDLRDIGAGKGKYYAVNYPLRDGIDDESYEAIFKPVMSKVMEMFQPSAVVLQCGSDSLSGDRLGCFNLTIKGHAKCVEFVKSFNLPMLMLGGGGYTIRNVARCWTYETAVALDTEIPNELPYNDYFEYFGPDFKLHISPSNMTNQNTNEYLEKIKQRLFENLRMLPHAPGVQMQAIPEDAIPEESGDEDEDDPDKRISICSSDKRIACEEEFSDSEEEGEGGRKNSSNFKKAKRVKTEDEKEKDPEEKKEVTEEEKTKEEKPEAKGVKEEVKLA

Tmax [2] [h] | CL [3] [mL/min/kg] | AUC [4] [ng·h/mL] | Compound | IC50 (Histone deacetylase 1) [µM] | Ratio IC50 (Homo sapiens) | IC50 [1] [µM] | IC50 (Histone deacetylase 3) [µM] | IC50 (Histone deacetylase 8) [µM] | IC50 (Histone deacetylase 2) [µM] | IC50 (Histone deacetylase 11) [µM] | IC50 (Histone deacetylase 7) [µM]
– | – | – | O=C(NO)c1ccc(Cn2c3c(c4ccccc42)C(=O)CCC3)cc1 | 18.1 | 168 | > 20 | > 20 | > 20 | > 20 | > 20 | > 20
2 | 55.7 | 302 | CC1(C)CC(=O)c2c(C(F)(F)F)nn(Cc3ccc(C(=O)NO)cc3)c2C1 | > 20 | 217 | > 20 | > 20 | > 20 | > 20 | > 20 | > 20
